# Values quoted from earlier work as cited in US8962267B1, “Method for predicting the response of non-small cell lung cancer patients to targeted pharmacotherapy” (Pamgene B.V., priority 2009, dated 2015).
# Tested on: NSCLC
# Details: second-line treatment of NSCLC patients, clinical trials, versus control
row,Structure (SMILES),overall survival
1,C#Cc1cccc(Nc2ncnc3cc(OCCOC)c(OCCOC)cc23)c1 [erlotinib],6.7 months
2,Nc1nc2[nH]cc(CCc3ccc(C(=O)N[C@@H](CCC(=O)O)C(=O)O)cc3)c2c(=O)[nH]1 [pemetrexed],8.3 months
3,"CC(=O)O[C@@]12CO[C@@H]1C[C@H](O)[C@@]1(C)C(=O)[C@H](O)C3=C(C)[C@@H](OC(=O)[C@H](O)[C@@H](NC(=O)OC(C)(C)C)c4ccccc4)C[C@@](O)([C@@H](OC(=O)c4ccccc4)[C@H]21)C3(C)C [docetaxal, docetaxel]",7.5 months
